From the supplement of paper PMC8671470

Legend:
Conditions in all cases: 72 h
HL-60 [1] = experiment: area under dose-response curve (viability, 1 nM-10 uM) (fraction (0-1)); higher = more sensitive
Procedure, shortened: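 For each screen, HL-60 cells in RPMI 1640 with 10% FBS carried either DMSO or 100 nM of one of three metabolic inhibitors while the full library was applied at five tenfold concentrations, 1–10,000 nM, in duplicate. Plates were 384-well and were kept 72 h at 37 °C, 5% CO2. Viability, measured by CellTiter-Glo, was normalised to wells with DMSO and with 10 μM proteasome inhibitor. Where area under the curve appears, it was fitted by four-parameter log-logistic models in drc and PharmacoGx.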

MOLM-13 [2] = system: MOLM-13
Procedure, shortened: (§1)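 Each of fifteen myeloid leukaemia cell lines was seeded in RPMI 1640 at a density titrated to its linear growth range. The cells were incubated for 72 h at 37 °C and 5% CO2 with compounds at five tenfold doses from 1 to 10,000 nM, in duplicate. After ATP luminescence was normalised to vehicle and to a positive control at 10 µM, four-parameter log-logistic curves were fitted. These curves gave the IC50.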

HL-60 [3] = system: HL-60
Procedure, shortened: as §1

MV4-11 [4] = system: MV4-11
Procedure, shortened: as §1

Mono-Mac-6 [5] = system: Mono-Mac-6
Procedure, shortened: as §1

KU-812 [6] = system: KU-812
Procedure, shortened: as §1

KCL-22 [7] = system: KCL-22
Procedure, shortened: as §1

BV-173 [8] = system: BV-173
Procedure, shortened: as §1

KG-1 [9] = system: KG-1
Procedure, shortened: as §1

ML-2 [10] = system: ML-2
Procedure, shortened: as §1

THP-1 [11] = system: THP-1
Procedure, shortened: as §1

NOMO-1 [12] = system: NOMO-1
Procedure, shortened: as §1

HEL [13] = system: HEL
Procedure, shortened: as §1

K-562 = system: K-562
Procedure, shortened: as §1

SHI-1 [14] = system: SHI-1
Procedure, shortened: as §1

LAMA-84 [15] = system: LAMA-84
Procedure, shortened: as §1

MOLM-13 [16] = experiment: cell viability (% survival relative to DMSO control, bortezomib = 0%); higher = less cytotoxic
Procedure, shortened: (§2)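 Percent survival figures are means of duplicate wells. They were obtained by CellTiter-Glo luminescence after 10 AML and 5 CML cell lines spent 72 h at 37 °C with 5% CO2 in 384-well plates with compounds at 1, 10, 100, 1000 or 10000 nM. Vehicle was set to 100% and a 10 µM positive control to 0%.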

HL-60 [17] = experiment: as above
Procedure, shortened: as §2

MV4-11 [18] = experiment: as above
Procedure, shortened: as §2

Mono-Mac-6 [19] = experiment: as above
Procedure, shortened: as §2

KU-812 [20] = experiment: as above
Procedure, shortened: as §2

KCL-22 [21] = experiment: as above
Procedure, shortened: as §2

BV-173 [22] = experiment: as above
Procedure, shortened: as §2

KG-1 [23] = experiment: as above
Procedure, shortened: as §2

ML-2 [24] = experiment: as above
Procedure, shortened: as §2

THP-1 [25] = experiment: as above
Procedure, shortened: as §2

NOMO-1 [26] = experiment: as above
Procedure, shortened: as §2

HEL [27] = experiment: as above
Procedure, shortened: as §2

SHI-1 [28] = experiment: as above
Procedure, shortened: as §2

LAMA-84 [29] = experiment: as above
Procedure, shortened: as §2

O=C(O)C(=O)CBr [3-bromopyruvic acid]
area under dose-response curve (HL-60 [1]; co-treatment: AZD3965 100 nM): < 0.0301 | area under dose-response curve (HL-60 [1]; co-treatment: DMSO vehicle): < 0.0301 | area under dose-response curve (HL-60 [1]; co-treatment: GSK2194069 100 nM): < 0.0301 | area under dose-response curve (HL-60 [1]; co-treatment: pictilisib 100 nM): < 0.0301 | IC50 (cell viability) (MOLM-13 [2]): > 10 µM | IC50 (cell viability) (HL-60 [3]): > 10 µM | IC50 (cell viability) (MV4-11 [4]): > 10 µM | IC50 (cell viability) (Mono-Mac-6 [5]): > 10 µM | IC50 (cell viability) (KU-812 [6]): > 10 µM | IC50 (cell viability) (KCL-22 [7]): > 10 µM | IC50 (cell viability) (BV-173 [8]): > 10 µM | IC50 (cell viability) (KG-1 [9]): > 10 µM | IC50 (cell viability) (ML-2 [10]): > 10 µM | IC50 (cell viability) (THP-1 [11]): > 10 µM | IC50 (cell viability) (NOMO-1 [12]): > 10 µM | IC50 (cell viability) (HEL [13]): > 10 µM | IC50 (cell viability) (K-562): > 10 µM | IC50 (cell viability) (SHI-1 [14]): > 10 µM | IC50 (cell viability) (LAMA-84 [15]): > 10 µM | cell viability (MOLM-13 [16]; 1 nM): 95% | cell viability (MOLM-13 [16]; 10 nM): 97.4% | cell viability (MOLM-13 [16]; 100 nM): 89.2% | cell viability (MOLM-13 [16]; 1000 nM): 93.8% | cell viability (MOLM-13 [16]; 10000 nM): 122% | cell viability (HL-60 [17]; 1 nM): 89.4% | cell viability (HL-60 [17]; 10 nM): 109% | cell viability (HL-60 [17]; 100 nM): 103% | cell viability (HL-60 [17]; 1000 nM): 87.3% | cell viability (HL-60 [17]; 10000 nM): 167% | cell viability (MV4-11 [18]; 1 nM): 93.7% | cell viability (MV4-11 [18]; 10 nM): 94.7% | cell viability (MV4-11 [18]; 100 nM): 88.4% | cell viability (MV4-11 [18]; 1000 nM): 101% | cell viability (MV4-11 [18]; 10000 nM): 99.8% | cell viability (Mono-Mac-6 [19]; 1 nM): 96.3% | cell viability (Mono-Mac-6 [19]; 10 nM): 93% | cell viability (Mono-Mac-6 [19]; 100 nM): 93.2% | cell viability (Mono-Mac-6 [19]; 1000 nM): 105% | cell viability (Mono-Mac-6 [19]; 10000 nM): 94.3% | cell viability (KU-812 [20]; 1 nM): 88% | cell viability (KU-812 [20]; 10 nM): 88.9% | cell viability (KU-812 [20]; 100 nM): 99.8% | cell viability (KU-812 [20]; 1000 nM): 97.6% | cell viability (KU-812 [20]; 10000 nM): 105% | cell viability (KCL-22 [21]; 1 nM): 99.6% | cell viability (KCL-22 [21]; 10 nM): 75.3% | cell viability (KCL-22 [21]; 100 nM): 91.7% | cell viability (KCL-22 [21]; 1000 nM): 93.1% | cell viability (KCL-22 [21]; 10000 nM): 106% | cell viability (BV-173 [22]; 1 nM): 107% | cell viability (BV-173 [22]; 10 nM): 85.9% | cell viability (BV-173 [22]; 100 nM): 99% | cell viability (BV-173 [22]; 1000 nM): 91.7% | cell viability (BV-173 [22]; 10000 nM): 99.7% | cell viability (KG-1 [23]; 1 nM): 94.9% | cell viability (KG-1 [23]; 10 nM): 93.3% | cell viability (KG-1 [23]; 100 nM): 111% | cell viability (KG-1 [23]; 1000 nM): 96% | cell viability (KG-1 [23]; 10000 nM): 106% | cell viability (ML-2 [24]; 1 nM): 91% | cell viability (ML-2 [24]; 10 nM): 78.4% | cell viability (ML-2 [24]; 100 nM): 102% | cell viability (ML-2 [24]; 1000 nM): 102% | cell viability (ML-2 [24]; 10000 nM): 99.4% | cell viability (THP-1 [25]; 1 nM): 106% | cell viability (THP-1 [25]; 10 nM): 85% | cell viability (THP-1 [25]; 100 nM): 105% | cell viability (THP-1 [25]; 1000 nM): 93.4% | cell viability (THP-1 [25]; 10000 nM): 107% | cell viability (NOMO-1 [26]; 1 nM): 93.3% | cell viability (NOMO-1 [26]; 10 nM): 95% | cell viability (NOMO-1 [26]; 100 nM): 101% | cell viability (NOMO-1 [26]; 1000 nM): 98.1% | cell viability (NOMO-1 [26]; 10000 nM): 98% | cell viability (HEL [27]; 1 nM): 90% | cell viability (HEL [27]; 10 nM): 83.1% | cell viability (HEL [27]; 100 nM): 92.2% | cell viability (HEL [27]; 1000 nM): 96.2% | cell viability (HEL [27]; 10000 nM): 112% | cell viability (SHI-1 [28]; 1 nM): 98.8% | cell viability (SHI-1 [28]; 10 nM): 98.3% | cell viability (SHI-1 [28]; 100 nM): 117% | cell viability (SHI-1 [28]; 1000 nM): 99.6% | cell viability (SHI-1 [28]; 10000 nM): 110% | cell viability (LAMA-84 [29]; 1 nM): 90.8% | cell viability (LAMA-84 [29]; 10 nM): 101% | cell viability (LAMA-84 [29]; 100 nM): 99.5% | cell viability (LAMA-84 [29]; 1000 nM): 99.4% | cell viability (LAMA-84 [29]; 10000 nM): 98%
